Legend:
[1] = test system: A549; experiment: Cytotoxicity against human A549 cells by Alamar Blue dye assay; format: functional, cell-based
[2] = test system: DLD-1; experiment: Cytotoxicity against human DLD1 cells by Alamar Blue dye assay; format: functional, cell-based
[3] = Cytotoxicity against human WS1 cells by Alamar Blue dye assay; format: cell-based

Structure (SMILES) | IC50 [1] [µM] | IC50 [2] [µM] | IC50 [3] [µM]
C=C(C)[C@@H]1CC[C@]2(C(=O)OC[C@H]3COC(C)(C)O3)CC[C@]3(C)[C@H](CC[C@@H]4[C@@]5(C)CC[C@H](O)C(C)(C)[C@@H]5CC[C@]43C)[C@@H]12 | 30 | 96 | 43
C=C(C)[C@@H]1CC[C@]2(C(=O)OC[C@H]3COC(C)(C)O3)CC[C@]3(C)[C@H](CC[C@@H]4[C@@]5(C)CC[C@H](OC(C)=O)C(C)(C)[C@@H]5CC[C@]43C)[C@@H]12 | > 100 | > 100 | > 100
C=C(C)[C@@H]1CC[C@]2(C(=O)OC[C@H](O)CO)CC[C@]3(C)[C@H](CC[C@@H]4[C@@]5(C)CC[C@H](O)C(C)(C)[C@@H]5CC[C@]43C)[C@@H]12 | 16 | 23 | 13.7
C=C(C)[C@@H]1CC[C@]2(C(=O)OC[C@H](O)CO)CC[C@]3(C)[C@H](CC[C@@H]4[C@@]5(C)CC[C@H](OC(C)=O)C(C)(C)[C@@H]5CC[C@]43C)[C@@H]12 | 16.5 | 18 | 15
C=C(C)[C@@H]1CC[C@]2(COC(=O)[C@H]3COC(C)(C)O3)CC[C@]3(C)[C@H](CC[C@@H]4[C@@]5(C)CC[C@H](OC(=O)[C@H]6COC(C)(C)O6)C(C)(C)[C@@H]5CC[C@]43C)[C@@H]12 | > 100 | > 100 | > 100
C=C(C)[C@@H]1CC[C@]2(COC(=O)[C@H]3COC(C)(C)O3)CC[C@]3(C)[C@H](CC[C@@H]4[C@@]5(C)CC[C@H](OC(C)=O)C(C)(C)[C@@H]5CC[C@]43C)[C@@H]12 | > 100 | > 100 | > 100
C=C(C)[C@@H]1CC[C@]2(COC(C)=O)CC[C@]3(C)[C@H](CC[C@@H]4[C@@]5(C)CC[C@H](OC(=O)[C@H]6COC(C)(C)O6)C(C)(C)[C@@H]5CC[C@]43C)[C@@H]12 | > 100 | > 100 | > 100
C=C(C)[C@@H]1CC[C@]2(COC(=O)[C@H](O)CO)CC[C@]3(C)[C@H](CC[C@@H]4[C@@]5(C)CC[C@H](OC(=O)[C@H](O)CO)C(C)(C)[C@@H]5CC[C@]43C)[C@@H]12 | 31 | 39 | 40
C=C(C)[C@@H]1CC[C@]2(COC(=O)[C@H](O)CO)CC[C@]3(C)[C@H](CC[C@@H]4[C@@]5(C)CC[C@H](OC(C)=O)C(C)(C)[C@@H]5CC[C@]43C)[C@@H]12 | 16.3 | 16 | 16
C=C(C)[C@@H]1CC[C@]2(COC(C)=O)CC[C@]3(C)[C@H](CC[C@@H]4[C@@]5(C)CC[C@H](OC(=O)[C@H](O)CO)C(C)(C)[C@@H]5CC[C@]43C)[C@@H]12 | 15.5 | 16 | 15

From ChEMBL document CHEMBL2046319, “Synthesis and cytotoxicity of lupane-type triterpenoid glyceryl esters” (Bioorg Med Chem Lett, 2012)
